Data: patent US20250013155A1, “MICROFLUIDIC POROUS MEMBRANE ELECTRICAL CELL-SUBSTRATE IMPEDANCE SENSING” (THE GOVERNING COUNCIL OF THE UNIVERSITY OF TORONTO, priority 2023, published 2025)

What was measured:
[1] = tested on: confluent monolayer of HUVECs; assay: PM-ECIS resistance (4 kHz) response to EGTA and thrombin barrier disruption, 250/500/750 μm electrodes; type: cell-based, human; conditions: all electrode sizes
Source text: The PM-ECIS devices were connected to a 24-channel multiplexer, which in turn connected to a phase-sensitive lock-in amplifier (LIA) and computer (FIG. 9D), The overall circuit for the ECIS system follows the set up described by Giaever and Keese. The LIA acts to both generate an alternating current signal, and receive signal measured across the cell layer. An alternating current signal of 1 V rms was generated at a specified frequency, connected to a 1 MΩ resistor to provide a 1 μA current. Cell-free devices were filled with culture medium and measurements taken over at least 12 hours to establish baseline impedance. The voltage drop across the device containing cells grown on electrodes was detected and measured by the LIA, which allows for small AC signals to be resolved in high noise systems. A cell-free baseline was established beforehand using cell-free devices filled with culture medium and impedance measurements taken over the course of at least 12 hours prior to cell seeding. LIA outputs including voltage drop and phase angle were used to calculate and plot impedance and resistance values.
Cells were incubated in 5 mM EGTA (Sigma-Aldrich, E3889) diluted in Endothelial Growth Medium at 37° C. and 5% CO2 for 2 hours, with ECIS measurements taken every 15 min. After 2 hours, EGTA was removed and replaced with fresh growth medium. For transient disruption of the endothelial barrier, cells were stimulated with 1 U/mL of thrombin from bovine plasma (Sigma-Aldrich, T6634) diluted in Endothelial Growth Medium at 37° C. and 5% CO2 for 2 hours, with measurements taken every 5 min.
To assess the effect of electrode size in PM-ECIS response to barrier disruption, a confluent monolayer of HUVECs was subjected to 2-hour treatment with EGTA. EGTA disrupts cell barriers by chelating Ca2+ ions to destabilize tight junctions. […]

[2] = tested on: HUVEC monolayers; assay: PM-ECIS resistance of HUVEC monolayers on 6-well inserts after thrombin barrier disruption; type: cell-based, human; conditions: 1 U/mL thrombin in fresh media, HUVECs, 6-well PM-ECIS
Procedure: A lock-in amplifier (LIA) (SR850, Stanford Research Systems) was used to simultaneously generate AC current and read impedance data from the devices. An Arduino-operated multiplexer was used to switch between devices. Using a 1 V rms input voltage, in series with a 1 MΩ resistor, electrodes (typ. 500 μm dia.) were stimulated at frequencies of 400, 4000 and 40000 Hz, and any voltage drops (at the locked frequencies) across the electrodes were sampled with the LIA every 15 or 60 mins. Prior to use, the devices without cells were left in media for at least 12 hours to record a stable cell-free impedance baseline for each electrode at each frequency.
Cell barrier resistance (Rb), capacitance (Cm), and basal barrier beneath the cells (a) were modeled and calculated using ECIS Core software (Applied Biophysics, v1.2.215.0 PC) using the raw impedance values taken at 400, 4000, and 40000 Hz.

Molecule	time to drop in resistance after treatment ([1]; 5 mM EGTA, 4 kHz) [min]	change in 4 kHz PM-ECIS resistance after addition of thrombin [2]	change in resistance after thrombin treatment ([1]; 1 U/mL thrombin, 4 kHz)	time for resistances to return to or close to pre-treatment values ([1]; 1 U/mL thrombin) [min]
O=C(O)CN(CCOCCOCCN(CC(=O)O)CC(=O)O)CC(=O)O [EGTA, ethylene glycol-bis(β-aminoethyl ether)-N,N,N′,N′-tetraacetic acid]	≤ 15			
thrombin: thrombin from bovine plasma (Sigma), used to disrupt cell-cell junctions		acute resistance drop	immediate drop in resistance	≤ 120
